Assay results published in patent US5686424A, “2-oxoethyl derivatives as immunosuppressants” (Miles Inc., priority 1995, dated 1997).
Like-named read-outs stand apart in the source and are kept apart here.

Experiments:
[1] = tested on: human T-cells; experiment: Suppression of Human T-Cell Proliferation Assay (PHA-stimulated, [3H]-thymidine incorporation); format: cell-based; details: read-out: IC50
Source text: 2) Human T Lymphocyte Inhibition
Inhibition of mitogen-induced T-cell proliferation can be used to profile immunosuppressive activity of test compounds. In the description of the assay which follows, mitogen-induced T-cell activation was used to test the inhibitory potencies of select compounds of the present invention.
In an assay similar to that described by Bradley in Mishell et al. (Eds.), 1980, Selected Methods in Cellular Immunology, pp 156-161, W. H. Freeman & Co., San Fransisco, Calif., T-cells were stimulated by incubation with phytohemagglutinin (PHA) which binds to cell surface molecules, including the T-cell receptor. This stimulation results in proliferation which can be measured by incorporation of [^3 H]-thymidine into cellular DNA.
The immunosuppressive properties of the compounds of the present invention can be determined by adding various concentrations of the compounds to these cultures and measuring the effect on T-cell proliferation.
Suppression of Human T-Cell Proliferation Assay
Fresh LeukoPaks were obtained from the New York Blood Center, New York, N.Y. The cells, including erythrocytes and leukocytes, were diluted with Hank's Balanced Salt Solution (HBSS) (GIBCO, Grand Island, N.Y.) and layered over Lymphoprep (Nycomed Pharma AS, Oslo, Norway) in sterile 50 ml conical centrifuge tubes. Lymphocytes were isolated at the Hank's/Nycomed interface after centrifugation at 2000×g, 4° C. for 15 min. The lymphocytes were washed with Minimal Essential Medium (GIBCO) containing 2% fetal bovine serum (FBS) (Sigma Chemical Co., St. Louis, Mo.), 1% HEPES buffer (GIBCO) and 1% Penicillin-Stretomycin solution (GIBCO).
T-cells were further purified essentially by sheep erythrocyte (SRBC) rosetting as described by Morimoto et al., 1983, J. Immunol. 130:157. The isolated lymphocytes were adjusted to 2×10^7 cells/ml and 5 ml aliquots of the cell suspension were incubated for 10 minutes at room temperature with 5 ml of a 5% SRBC (Cappel, Organon Technika Corp., West Chester, Pa.) suspension. The cells were gently pelleted by centrifugation at 300 rpm for 10 minutes, followed by a 1 hour incubation at room temperature to allow rosette formation. The cells were gently resuspended,layered over Lymphoprep and centrifuged for 30 minutes at 500×g. The pellet, containing rosetted T-cells and SRBC was treated with ice cold buffered ammonium chloride (GIBCO) to lyse the erythrocytes. T-cells were washed twice with HBSS.
Purified T-cells were resuspended at 2×10^6 cells/ml in complete culture medium composed of RPMI-1640 (Whittaker Bioproducts, Walkerville, Md.) with 10% FBS (Sigma), 2 mM L-glutamine (GIBCO), 1% Penicillin-Streptomycin (GIBCO) and 15 mM HEPES (GIBCO). In 96-well plates (Becton Dickinson, Lincoln Park, N.J.), 0.1 ml aliquots of T-cell suspension were mixed with 0.05 ml of 40 μg/ml PHA-M (Sigma). The compounds of this invention were dissolved in dimethylsulfoxide at 10 mM and various dilutions in complete medium were added in duplicate wells (0.05 ml/well). The plates were incubated at 37° C. in a humidified atmosphere of 5% carbon dioxide and 95% air for 72 hours.
Proliferation was assessed by measurement of [^3 H]-thymidine incorporation. During the last 6 hours of incubation, the cells were pulse labelled with 1 μCi/well of [^3 H]-thymidine (New England Nuclear, Boston, Mass.). The cells were harvested onto glass fiber paper using a plate harvester and the radioactivity incorporated into cellular DNA corresponding to individual wells was measured by standard liquid scintillation counting methods.

[2] = target: FKBP (Homo sapiens, UniProt P62942); experiment: PPIase Inhibition Assay; format: biochemical
Method: 1) Inhibition of PPIase Activity
This assay follows in principle the procedure described in Kofron et al., 1991, Biochemistry 30:6127.
The three main reagents used are PPIase, a substrate for PPIase, and a selected inhibitor compound of the present invention. The basic principle behind this assay is the conversion of the cis isomer of the substrate to the trans form, which conversion is catalyzed by PPIase. Essentially, inhibition of this PPIase activity is measured for the selected compounds. A peptide chymotrypsin substrate containing a proline in the P2 position is only cleaved by chymotrypsin when the Phe-Pro bond is in the trans isomeric configuration. In the presence of excess chymotrypsin, all of the trans peptide isomers are cleaved within approximately five seconds, leaving only cis forms.
The cis peptide will spontaneously convert to the trans isomer at a slow rate. The cis to trans conversion is catalyzed by isomerases at a much faster rate than this spontaneous conversion. Proteins with PPIase activity are examples of such isomerases. After isomerization, the peptide is cleaved by chymotrypsin releasing p-nitroaniline which can be monitored at 390 nm. The rate of release is then calculated using a first order rate plus offset equation utilizing the ENZFITTER program (Leatherbarrow, BIOSOFT, Cambridge, United Kingdom).
In a plastic cuvette are added 950 ul of ice cold assay buffer (25 mM HEPES, pH 7.8, 100 mM NaCl), 10 uL of FKBP (2.5 uM in 10 mM Tris-Cl pH 7.5, 100 mM NaCl, 1 mM dithiothreitol), 25 ul of chymotrypsin (50 mg/ml in 1 mM HCl) and 10 ul of the test compound at various concentrations in dimethyl sulphoxide. The reaction is initiated by addition of 5 ul of substrate (Succinyl-Ala-Phe-Pro-Phe-para-nitroanilide, 5 mg/ml in 235 mM LiCl in trifluoroethanol).
The absorbance at 390 nm versus time is monitored for 90 sec using a Beckman DU70 spectrophotometer. The absorbance versus time data files are transferred to an IBM XT computer and the rate constants determined using the commercial enzfitter program. For each set of data, the uncatalyzed rate of conversion is measured and the uninhibited enzymatic rate determined. The data are expressed as % Activity remaining and are calculated as follows:
% Activity Remaining=(kobs -kuncat)/(kuninh
where kobs is the rate in the presence of a selected test compound, kuncat is the rate in the absence of enzyme, and kuninh is the rate in the presence of enzyme
Data was plotted as the velocity in the absence of the inhibitor (V-) divided by the velocity in the presence of inhibitor (V+) versus the inhibitor concentration. The IC50 can be determined following linear regression as the inhibitor concentration where

[3] = concentration inhibiting [3H]-thymidine incorporation of PHA-stimulated T-cells by 50%, 72 hours, TABLE 2
[4] = concentration of inhibitor required for 50% inhibition of enzyme activity, FKBP, substrate Succinyl-Ala-Phe-Pro-Phe-para-nitroanilide, TABLE I

FKBP, sequence (P62942 whole entry): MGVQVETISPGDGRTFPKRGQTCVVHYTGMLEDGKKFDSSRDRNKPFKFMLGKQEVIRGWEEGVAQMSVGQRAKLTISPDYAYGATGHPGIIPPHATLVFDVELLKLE

| IC50 [2, 4] [µM] | Compound | IC50 [1] [µM] | IC50 [2] [µM] | IC50 [1, 3] [µM] |
| --- | --- | --- | --- | --- |
| 2.7 | CC[C@H](C)[C@H](NC(=O)[C@@H]1CCCN1CC(=O)c1ccccc1)C(=O)NCc1ccccc1 [Example 7, L-Isoleucine, N-[1-(2-Phenyl-2-Oxoethyl)-L-Prolyl] Benzylamide] |  |  | < 50 |
| < 50 | CC[C@H](C)[C@H](NC(=O)[C@@H]1CCCCN1CC(=O)OCc1ccccc1)C(=O)NCc1ccccc1 [Example 23] |  |  | 62 |
| > 5 | CC[C@H](C)[C@H](NC(=O)[C@@H]1CCCN1CC(=O)NCCO)C(=O)NCc1ccccc1 [Example 76, L-Isoleucine, N-[1-(2-(2-Hydroxyethylamine)-2-Oxoethyl)-L-Prolyl] Benzylamide] |  |  | > 50 |
| > 5 | CC[C@H](C)[C@H](NC(=O)[C@@H]1CCCN1CC(=O)O)C(=O)NCc1ccccc1 [Example 71, L-Isoleucine, N-[1-(Carboxymethyl)-L-Prolyl] Benzylamide] |  |  | > 50 |
| > 5 | CC[C@H](C)[C@H](NC(=O)[C@@H]1CCCN1CC(=O)N1CCCC1)C(=O)NCc1ccccc1 [Example 78, L-Isoleucine, N-[1-[2-(1-Pyrrolidine)-2-Oxoethyl]-L-Prolyl] Benzylamide] |  |  | 100 |
| < 5 | CC[C@H](C)[C@H](NC(=O)[C@@H]1CCCN1CC(=O)N1CCC(c2ccccc2)CC1)C(=O)NCc1ccccc1 [Example 82, L-Isoleucine, N-[1-(2-(4-Phenylpiperidyl)-2-Oxoethyl)-L-Prolyl] Benzylamide] |  |  | 20 |
| < 5 | CC[C@H](C)[C@H](NC(=O)[C@@H]1CCCN1CC(=O)N1CCC(Cc2ccccc2)CC1)C(=O)NCc1ccccc1 [Example 74, L-Isoleucine, N-[1-[2-(N-(4-Benzylpiperidyl))-2-Oxoethyl]-L-Prolyl] Benzylamide] |  |  | < 50 |
| 3.4 | CC[C@H](C)[C@H](NC(=O)[C@@H]1CCCN1CC(=O)c1ccc2ccccc2c1)C(=O)NCc1ccccc1 [Example 8, L-Isoleucine, N-[1-(2-Naphth-2-yl-2-Oxoethyl)-L-Prolyl] Benzylamide] |  |  | 50 |
| < 50 | L-Isoleucine, N-[1-(2-(2-Methoxyphenyl)-2-Oxoethyl)-L-Prolyl] Benzylamide [Example 10] |  |  | < 50 |
| < 5 | CC[C@H](C)[C@H](NC(=O)[C@@H]1CCCN1CC(=O)N1CCCCC1C)C(=O)NCc1ccccc1 (stereo partly drawn) [Example 75, L-Isoleuclne, N-[1-[2-(2-Methylpiperidine)-2-Oxoethyl]-L-Prolyl] Benzylamide] |  |  | 37 |
| > 50 | CC[C@H](C)[C@@H](C(=O)NCc1ccccc1)N(C)C(=O)[C@@H]1CCCN1CC(=O)OCc1ccccc1 [Example 22, L-Isoleucine, N-Methyl-N-[1-(2-Benzyloxy-2-Oxoethyl)-L-Prolyl] Benzylamide] |  |  | 42 |
| 50 | CC[C@H](C)[C@H](NC(=O)[C@@H]1CCCN1CC(=O)c1sc2ccc(Cl)cc2c1C)C(=O)NCc1ccccc1 [Example 11, L-Isoleucine, N-[1-(2-(5-Chloro-3-Methyl-benzo[B]thiophene-2-yl)-2-Oxoethyl)-L-Prolyl] Benzylamide] |  |  | 34 |
| < 5 | CC[C@H](C)[C@H](NC(=O)[C@@H]1CCCN1CC(=O)c1ccc(Br)cc1)C(=O)NCc1ccccc1 [Example 34, L-Isoleucine, N-[1-(2-(4-Bromophenyl)-2-Oxoethyl)-L-Prolyl] Benzylamide] |  |  | 40 |

Second part, the compound before the results:

| Compound | IC50 [2, 4] [µM] | IC50 [1] [µM] | IC50 [2] [µM] | IC50 [1, 3] [µM] |
| --- | --- | --- | --- | --- |
| O=C(CN1CCC[C@H]1C(=O)N[C@@H](Cc1ccccc1)C(=O)NCc1ccccc1)c1ccc(-c2ccccc2)cc1 [Example 53, L-Phenylalanine, N-[1-(2-(Biphenyl-4-yl)-2-Oxoethyl)-L-Prolyl] Benzylamide] |  | 16 | > 50 |  |
| CC[C@H](C)[C@H](NC(=O)[C@@H]1CCCN1CC(=O)c1cccc(OCc2ccccc2)c1)C(=O)NCc1ccccc1 [Example 31, L-Isoleucine, N-[1-(2-(3-Benzyloxyphenyl)-2-Oxoethyl)-L-Prolyl] Benzylamlde] | < 5 |  |  | 32 |
| CC[C@H](C)[C@H](NC(=O)[C@@H]1CCCN1CC(=O)c1ccc(Cl)cc1)C(=O)NCc1ccccc1 [Example 13, L-Isoleucine, N-[1-(2-(4-Chlorophenyl)-2-Oxoethyl)-L-Prolyl] Benzylamlde] | < 50 |  |  | > 50 |
| CC[C@H](C)[C@H](NC(=O)[C@@H]1CCCN1CC(=O)N1CCC2(CC1)OCCO2)C(=O)NCc1ccccc1 [Example 73, L-Isoleucine, N-[1-(2-(1,4-Dioxa-8-aza-spiro[4.5]dec-8-yl)-2-Oxoethyl)-L-Prolyl] Benzylamide] | < 5 |  |  | > 50 |
| CC[C@H](C)[C@H](NC(=O)[C@@H]1CCCN1CC(=O)C(C)(C)C)C(=O)NCc1ccccc1 [Example 26, L-Isoleucine, N-[1-(2-tert-Butyl-2-Oxoethyl)-L-Proline] Benzylamlde] | < 50 |  |  | 58 |
| L-Isoleucine, N-[1-(2-(Carbo-tert-Butoxy)-2-Oxoethyl)-L-Proline] Benzylamide [Example 25] | 0.99 |  |  | 63 |
| CC[C@H](C)[C@H](NC(=O)[C@@H]1CCCN1CC(=O)c1ccc(O)c(O)c1)C(=O)NCc1ccccc1 [Example 21, L-Isoleucine, N-[1-(2-(3,4-Dihydroxyphenyl)-2-Oxoethyl)-L-Prolyl] Benzylamide] | < 50 |  |  | 34 |
| CC[C@H](C)[C@H](NC(=O)[C@@H]1CCCN1CC(=O)c1ccc(-c2ccccc2)cc1)C(=O)NCc1ccccc1 [Example 9, L-Isoleucine, N-[1-(2-(Biphenyl-4-yl)-2-Oxoethyl)-L-Prolyl] Benzylamide] |  | 50 | < 50 |  |
| CC[C@H](C)[C@H](NC(=O)[C@@H]1CCCN1CC(=O)c1ccc(F)cc1)C(=O)NCc1ccccc1 [Example 33, L-Isoleucine, N-[1-(2-(4-Fluorophenyl)-2-Oxoethyl)-L-Prolyl] Benzylamide] | 5 |  |  | 42 |
